In patent US12239720B2, “Compositions for use in lysis of selective cancer cells” (ONCOLYZE, INC., priority 2018, dated 2025):

Tested on: cancer cells
Experiment: Tumor cell necrosis of cancer cells versus normal cells (general statement)
Format: cell-based
Conditions: cancer cells vs normal cells; statement in the description, no data shown
Procedure: PNC-27 or PNC-28 is incubated with 6×10^6 cancer cells, for example, Mia-PaCa-2 cells, for 5 days at concentrations ranging from 0.001-750 μM. At different timepoints following treatment the cells are assessed for signs of necrosis, for example, membrane blebbing and disruption and formation of cell clumps coalescing into aggregates of cellular debris. Percent cell death is determined by measuring trypan blue dye uptake. Cancer cells are also treated with the negative control peptide PNC-29 and, separately, a peptide having only the p53 derived portion of PNC-27 or PNC-28 that cannot traverse the cell membrane due to the lack of the MRP peptide, administered at the same concentration as the test peptide. The effect of these control peptides on cellular growth, morphology and viability is determined.
As an additional control, PNC-27 or PNC-28 is combined with untransformed BMRPA1 acinar cells and with the untransformed breast epithelial cell line, MCF-10-2A at a concentration ranging from 0.001-750 μM to determine if the peptide is lethal to normal cell growth.

Sequence | tumor cell necrosis
ETFSDLWKLLKKWKMRRNQFWVKVQRG [PNC-28, p53 aa17-26-MRP] | induce tumor cell necrosis of cancer cells, but not normal cells
PPLSQETFSDLWKLLKKWKMRRNQFWVKVQRG [PNC-27] | induce tumor cell necrosis of cancer cells, but not normal cells
